These results are taken from ChEMBL document CHEMBL1777770, “Design, synthesis, inhibitory activity, and binding mode study of novel DNA methyltransferase 1 inhibitors” (Bioorg Med Chem Lett, 2010).

For experiment [1], the target named is DNA (cytosine-5)-methyltransferase 1 (Homo sapiens) (UniProt P26358). The experiment is described as follows: Inhibition of human DNA methyltransferase using S-adenosyl-L-methionine substrate at 10 to 1000 uM measured after 60 mins.
The target is the same in experiment [2]. The experiment is described as follows: Inhibition of human DNA methyltransferase using S-adenosyl-L-methionine substrate at 1000 uM measured after 60 mins.
The target is the same in experiment [3]. The experiment is described as follows: Inhibition of human DNA methyltransferase using S-adenosyl-L-methionine substrate at 10 uM measured after 60 mins.

SMILES strings stand for the structures. The source made the active and inactive calls. The rule behind the calls is not given here.

Sequence of DNA (cytosine-5)-methyltransferase 1 (Homo sapiens) (P26358 whole entry): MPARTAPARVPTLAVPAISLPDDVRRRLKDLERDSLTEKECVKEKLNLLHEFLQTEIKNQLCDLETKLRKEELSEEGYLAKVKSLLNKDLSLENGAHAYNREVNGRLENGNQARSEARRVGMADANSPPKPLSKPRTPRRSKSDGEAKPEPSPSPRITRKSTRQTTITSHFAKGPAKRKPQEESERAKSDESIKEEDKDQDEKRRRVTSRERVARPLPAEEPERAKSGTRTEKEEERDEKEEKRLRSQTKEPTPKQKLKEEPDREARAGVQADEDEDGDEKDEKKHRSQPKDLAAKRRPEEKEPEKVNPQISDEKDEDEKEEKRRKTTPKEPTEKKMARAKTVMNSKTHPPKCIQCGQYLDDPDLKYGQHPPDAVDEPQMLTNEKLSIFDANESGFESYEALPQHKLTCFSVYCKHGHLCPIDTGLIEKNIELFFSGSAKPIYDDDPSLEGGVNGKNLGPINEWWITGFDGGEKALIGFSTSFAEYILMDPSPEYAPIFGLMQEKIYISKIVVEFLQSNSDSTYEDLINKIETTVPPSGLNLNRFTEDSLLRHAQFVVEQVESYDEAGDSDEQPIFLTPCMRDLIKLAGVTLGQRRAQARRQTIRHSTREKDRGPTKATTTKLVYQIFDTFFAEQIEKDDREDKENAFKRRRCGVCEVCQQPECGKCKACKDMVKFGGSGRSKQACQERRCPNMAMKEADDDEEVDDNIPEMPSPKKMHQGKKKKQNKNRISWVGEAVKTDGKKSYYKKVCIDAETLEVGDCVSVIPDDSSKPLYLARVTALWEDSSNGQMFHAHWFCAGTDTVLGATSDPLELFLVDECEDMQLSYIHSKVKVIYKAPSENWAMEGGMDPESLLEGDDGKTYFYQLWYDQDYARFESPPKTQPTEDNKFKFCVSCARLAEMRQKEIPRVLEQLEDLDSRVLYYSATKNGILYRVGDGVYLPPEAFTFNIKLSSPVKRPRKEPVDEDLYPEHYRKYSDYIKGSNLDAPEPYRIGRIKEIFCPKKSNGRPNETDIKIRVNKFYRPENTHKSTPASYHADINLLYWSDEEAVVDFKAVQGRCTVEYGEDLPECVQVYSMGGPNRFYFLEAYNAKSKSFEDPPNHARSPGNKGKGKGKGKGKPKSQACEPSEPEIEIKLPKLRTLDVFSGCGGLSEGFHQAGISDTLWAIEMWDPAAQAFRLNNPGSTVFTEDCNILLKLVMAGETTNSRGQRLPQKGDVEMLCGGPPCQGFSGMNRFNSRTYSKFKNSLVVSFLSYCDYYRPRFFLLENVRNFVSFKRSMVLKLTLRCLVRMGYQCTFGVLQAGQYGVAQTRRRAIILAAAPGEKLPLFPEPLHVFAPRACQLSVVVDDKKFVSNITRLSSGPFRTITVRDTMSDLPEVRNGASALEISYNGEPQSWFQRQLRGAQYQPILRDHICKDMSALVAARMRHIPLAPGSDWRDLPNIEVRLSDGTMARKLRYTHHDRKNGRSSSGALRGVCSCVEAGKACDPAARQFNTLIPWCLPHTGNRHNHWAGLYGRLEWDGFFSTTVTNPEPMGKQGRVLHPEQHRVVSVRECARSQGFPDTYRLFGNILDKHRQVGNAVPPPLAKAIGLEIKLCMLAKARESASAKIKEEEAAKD

The term inhibition denotes the relative decrease from the control value, in per cent. Regarding `O=C(O)[C@H](Cc1c[nH]c2ccccc12)N1C(=O)C=C(c2ccccc2)C1=O`, in experiment [1], the inhibition entry was “Active”.
For `CC1=CC(=O)N([C@@H](Cc2c[nH]c3ccccc23)C(=O)O)C1=O`, in experiment [1], the inhibition result is “Active”.
In turn, `O=C(O)[C@H](Cc1c[nH]c2ccccc12)N1C(=O)c2ccccc2C1=O` returned an inhibition in experiment [2] of 34%.
With `CC1=C(C)C(=O)N([C@@H](Cc2c[nH]c3ccccc23)C(=O)O)C1=O`, the inhibition entry in experiment [1] is “Active”.
With `O=C(O)[C@H](Cc1c[nH]c2ccccc12)N1C(=O)CCC1=O`, the inhibition entry in experiment [1] was “inactive”.
Consider `O=C(O)[C@H](Cc1c[nH]c2ccccc12)N1C(=O)C=CC1=O`, for which the inhibition result in experiment [1] is “Active”. For the same compound, the inhibition in experiment [3] was determined as 60%.
